Results as given in publication PMC8963254, “Effects of Lysine N-ζ-Methylation in Ultrashort Tetrabasic Lipopeptides (UTBLPs) on the Potentiation of Rifampicin, Novobiocin, and Niclosamide in Gram-Negative Bacteria” (Antibiotics, 2022).
Where two headings read alike, the source gives them in different places.

How the values were obtained:
P. aeruginosa PAO1 [1] = assay type: cell-based, Pseudomonas aeruginosa; conditions: PAO1, 18 h
Protocol: (§1) The in vitro antibacterial activity of the UTBLPs was assessed against wild-type and clinically isolated bacterial strains. To obtain the MIC of the compounds, the microbroth dilution susceptibility assay was performed according to the Clinical and Laboratory Standards Institute (CLSI, Wayne, PA, USA) guidelines and as previously described. Briefly, the compounds at varying concentrations were incubated with bacterial inoculum (5 × 10^5 CFU/mL final concentration) at 37 °C for 18 h. Growth in the form of turbidity was confirmed using an EMax Plus microplate reader (Molecular Devices, San Jose, CA, USA) at 590 nm.

A. baumannii ATCC 17978 = assay type: cell-based, Acinetobacter baumannii; conditions: ATCC 17978, 18 h
Protocol: as §1

E. coli ATCC 25922 = assay type: cell-based, Escherichia coli; conditions: ATCC 25922, 18 h
Protocol: as §1

MRSA ATCC 33592 = assay type: cell-based, Staphylococcus aureus; conditions: ATCC 33592, 18 h
Protocol: as §1

S. aureus ATCC 29213 = assay type: cell-based, Staphylococcus aureus; conditions: ATCC 29213, 18 h
Protocol: as §1

E. faecalis ATCC 29212 [2] = assay type: cell-based, Enterococcus faecalis; conditions: ATCC 29212, 18 h
Protocol: as §1

[3] = test system: P. aeruginosa PA259-96196; test: microbe, parasite or virus in culture; assay type: cell-based, Pseudomonas aeruginosa; conditions: PA259-96196, 18 h
Summary of the method: (§2)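 Minimum inhibitory concentration came from a CLSI broth dilution assay: 18 h at 37 °C, inoculum 5 × 10^5 CFU/mL final.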

[4] = test system: P. aeruginosa PA262-101856; test: microbe, parasite or virus in culture; assay type: cell-based, Pseudomonas aeruginosa; conditions: PA262-101856, 18 h
Summary of the method: as §2

A. baumannii AB027 = test: microbe, parasite or virus in culture; assay type: cell-based, Acinetobacter baumannii; conditions: AB027, 18 h
Summary of the method: as §2

A. baumannii AB92247 = test: microbe, parasite or virus in culture; assay type: cell-based, Acinetobacter baumannii; conditions: AB92247, 18 h
Summary of the method: as §2

E. coli 94393 = test: microbe, parasite or virus in culture; assay type: cell-based, Escherichia coli; conditions: 94393, 18 h
Summary of the method: as §2

E. coli 94474 [5] = test: microbe, parasite or virus in culture; assay type: cell-based, Escherichia coli; conditions: 94474, 18 h
Summary of the method: as §2

MRSE 61589 [6] = assay type: cell-based, Staphylococcus epidermidis; conditions: 61589, 18 h
Protocol: as §1

MSSE 81388 [7] = assay type: cell-based, Staphylococcus epidermidis; conditions: 18 h
Protocol: as §1

[8] = test system: P. aeruginosa PA259-96196; assay type: cell-based, Pseudomonas aeruginosa; conditions: for MICUTBLP: UTBLP alone
Protocol: (§3) The synergy of the UTBLPs with various antibiotics was assessed using checkerboard assay as previously described. Briefly, the combination of antibiotic and OMP at varying concentrations were incubated with bacterial inoculum (5 × 10^5 CFU/mL final concentration) at 37 °C for 18 h. Growth in the form of turbidity was confirmed using an EMax Plus microplate reader (Molecular Devices, Union City, CA, USA) at 590 nm. Fractional inhibitory concentration index (FICI) was used to evaluate the interaction between the antibiotic and the OMP. FICI is the sum of the FIC of the antibiotic and the FIC of the OMP. The FIC value is calculated by dividing the MIC of the agents in combination by the MIC of the agent alone. FICI ≤ 0.5 is synergistic, 0.5 < x ≤ 4 is additive, and >4 is antagonistic.

[9] = test system: P. aeruginosa PA262-101856; assay type: cell-based, Pseudomonas aeruginosa; conditions: for MICUTBLP: UTBLP alone
Protocol: as §3

P. aeruginosa PAO1 [10] = assay type: cell-based, Pseudomonas aeruginosa; conditions: for MICUTBLP: UTBLP alone
Protocol: as §3

E. coli 94474 [11] = assay type: cell-based, Escherichia coli; conditions: for MICUTBLP: UTBLP alone
Protocol: as §3

E. cloacae 118564 = assay type: cell-based, Enterobacter cloacae; conditions: for MICUTBLP: UTBLP alone
Protocol: as §3

MRSE 61589 [12] = assay type: cell-based, Staphylococcus epidermidis
Protocol: as §3

MSSE 81388 [13] = assay type: cell-based, Staphylococcus epidermidis
Protocol: as §3

E. faecalis ATCC 29212 [14] = assay type: cell-based, Enterococcus faecalis
Protocol: as §3

[15] = UTBLP in combination with novobiocin
[16] = UTBLP in combination with rifampicin
[17] = novobiocin in combination with the UTBLP
[18] = rifampicin in combination with the UTBLP
[19] = UTBLP in combination with chloramphenicol
[20] = chloramphenicol in combination with the UTBLP
[21] = UTBLP alone, plate with chloramphenicol

MIC (P. aeruginosa PAO1 [1]): >128 µg/mL | MIC (A. baumannii ATCC 17978): >128 µg/mL | MIC (E. coli ATCC 25922): >128 µg/mL | MIC (MRSA ATCC 33592): >128 µg/mL | MIC (S. aureus ATCC 29213): >128 µg/mL | MIC (E. faecalis ATCC 29212 [2]): >128 µg/mL | MIC [3]: > 128 µg/mL | MIC [4]: > 128 µg/mL | MIC (A. baumannii AB027): > 128 µg/mL | MIC (A. baumannii AB92247): > 128 µg/mL | MIC (E. coli 94393): > 128 µg/mL | MIC (E. coli 94474 [5]): > 128 µg/mL | MIC (MRSE 61589 [6]): > 128 µg/mL | MIC (MSSE 81388 [7]): > 128 µg/mL | MICUTBLP ([8]; plate with novobiocin): > 128 µg/mL | MICUTBLP ([8]; plate with rifampicin): > 128 µg/mL | MICUTBLP [MICcombo] [8, 15]: 0.25 µg/mL | MICUTBLP [MICcombo] [8, 16]: 16 µg/mL | MICantibiotic [MICcombo] [8, 17]: 2048 µg/mL | MICantibiotic [MICcombo] [8, 18]: 16 µg/mL | MICUTBLP ([9]; plate with novobiocin): > 128 µg/mL | MICUTBLP ([9]; plate with rifampicin): > 128 µg/mL | MICUTBLP [MICcombo] [9, 15]: 8 µg/mL | MICUTBLP [MICcombo] [9, 16]: 0.25 µg/mL | MICantibiotic [MICcombo] [9, 17]: 1024 µg/mL | MICantibiotic [MICcombo] [9, 18]: 512 µg/mL | MICUTBLP (P. aeruginosa PAO1 [10]; plate with chloramphenicol): > 128 µg/mL | MICUTBLP (P. aeruginosa PAO1 [10]; plate with niclosamide): > 128 µg/mL | MICUTBLP (P. aeruginosa PAO1 [10]; plate with novobiocin): > 128 µg/mL | MICUTBLP (P. aeruginosa PAO1 [10]; plate with rifampicin): > 128 µg/mL | MICUTBLP [MICcombo] (P. aeruginosa PAO1 [10]; [19]): 8 µg/mL | MICUTBLP [MICcombo] (P. aeruginosa PAO1 [10]; UTBLP in combination with niclosamide): 0.25 µg/mL | MICUTBLP [MICcombo] (P. aeruginosa PAO1 [10]; [15]): 16 µg/mL | MICUTBLP [MICcombo] (P. aeruginosa PAO1 [10]; [16]): 0.25 µg/mL | MICantibiotic [MICcombo] (P. aeruginosa PAO1 [10]; [20]): 8 µg/mL | MICantibiotic [MICcombo] (P. aeruginosa PAO1 [10]; niclosamide in combination with the UTBLP): 1024 µg/mL | MICantibiotic [MICcombo] (P. aeruginosa PAO1 [10]; [17]): 512 µg/mL | MICantibiotic [MICcombo] (P. aeruginosa PAO1 [10]; [18]): 16 µg/mL | MICUTBLP (E. coli 94474 [11]; plate with novobiocin): > 128 µg/mL | MICUTBLP (E. coli 94474 [11]; plate with rifampicin): > 128 µg/mL | MICUTBLP [MICcombo] (E. coli 94474 [11]; [15]): 16 µg/mL | MICUTBLP [MICcombo] (E. coli 94474 [11]; [16]): 16 µg/mL | MICantibiotic [MICcombo] (E. coli 94474 [11]; [17]): 32 µg/mL | MICantibiotic [MICcombo] (E. coli 94474 [11]; [18]): 2 µg/mL | MICUTBLP (E. cloacae 118564; plate with novobiocin): > 128 µg/mL | MICUTBLP (E. cloacae 118564; plate with rifampicin): > 128 µg/mL | MICUTBLP [MICcombo] (E. cloacae 118564; [15]): 16 µg/mL | MICUTBLP [MICcombo] (E. cloacae 118564; [16]): 8 µg/mL | MICantibiotic [MICcombo] (E. cloacae 118564; [17]): 16 µg/mL | MICantibiotic [MICcombo] (E. cloacae 118564; [18]): 2 µg/mL | MICUTBLP (MRSE 61589 [12]; [21]): > 128 µg/mL | MICUTBLP [MICcombo] (MRSE 61589 [12]; [19]): 0.25 µg/mL | MICchloramphenicol [MICcombo] (MRSE 61589 [12]; [20]): 16 µg/mL | MICUTBLP (MSSE 81388 [13]; [21]): > 128 µg/mL | MICUTBLP [MICcombo] (MSSE 81388 [13]; [19]): 0.25 µg/mL | MICchloramphenicol [MICcombo] (MSSE 81388 [13]; [20]): 8 µg/mL | MICUTBLP (E. faecalis ATCC 29212 [14]; [21]): > 128 µg/mL | MICUTBLP [MICcombo] (E. faecalis ATCC 29212 [14]; [19]): 0.25 µg/mL | MICchloramphenicol [MICcombo] (E. faecalis ATCC 29212 [14]; [20]): 8 µg/mL
Structure (SMILES): CCCCCCCC(=O)N[C@@H](CCCCN(C)C)C(=O)NCCCN(CCCNC(=O)[C@H](CCCCN(C)C)NC(=O)CCCCCCC)CC(=O)N[C@@H](CCCCN(C)C)C(N)=O [UTBLP 3]
Interpretation ([8]; UTBLP + novobiocin): Additive (0.5 < x ≤ 4 is additive) | Interpretation ([8]; UTBLP + rifampicin): Additive (0.5 < x ≤ 4 is additive) | Interpretation ([9]; UTBLP + novobiocin): Additive (0.5 < x ≤ 4 is additive) | Interpretation ([9]; UTBLP + rifampicin): Additive (0.5 < x ≤ 4 is additive) | Interpretation (P. aeruginosa PAO1 [10]; UTBLP + chloramphenicol): Additive (0.5 < x ≤ 4 is additive) | Interpretation (P. aeruginosa PAO1 [10]; UTBLP + niclosamide): Additive (0.5 < x ≤ 4 is additive) | Interpretation (P. aeruginosa PAO1 [10]; UTBLP + novobiocin): Additive (0.5 < x ≤ 4 is additive) | Interpretation (P. aeruginosa PAO1 [10]; UTBLP + rifampicin): Additive (0.5 < x ≤ 4 is additive) | Interpretation (E. coli 94474 [11]; UTBLP + novobiocin): Synergy (FICI ≤ 0.5 is synergistic) | Interpretation (E. coli 94474 [11]; UTBLP + rifampicin): Additive (0.5 < x ≤ 4 is additive) | Interpretation (E. cloacae 118564; UTBLP + novobiocin): Synergy (FICI ≤ 0.5 is synergistic) | Interpretation (E. cloacae 118564; UTBLP + rifampicin): Synergy (FICI ≤ 0.5 is synergistic) | Interpretation (MRSE 61589 [12]; UTBLP + chloramphenicol): Additive (0.5 < x ≤ 4 is additive) | Interpretation (MSSE 81388 [13]; UTBLP + chloramphenicol): Additive (0.5 < x ≤ 4 is additive) | Interpretation (E. faecalis ATCC 29212 [14]; UTBLP + chloramphenicol): Additive (0.5 < x ≤ 4 is additive)
